# Assay results from patent EP0361348A1, “Non-steroidal pharmaceutical composition and process for producing the same” (NIPPON HYPOX LABORATORIES INCORPORATED, priority 1988, dated 1990).
# Test system: male SD rats
# Test: Anti-inflammatory action: carrageenin-induced sole swelling (plethysmometer)
# Format: in vivo
# Details: 1 mg/kg in terms of Piroxicam, oral; for Swelling percent: 1 hour before carrageenin, mean, n=5
# Procedure: As test animals, there were used male SD rats each weighing about 200 g. As a test sample, there was used a suspension of each of the anti-inflammatory agent compositions No. 1-4 obtained in Examples 1-4 above, in a gum arabic solution (the concentration of Piroxicam in the suspension was 1%). This test sample was orally administered to each rat in an amount of 1 mg/kg in terms of Piroxicam. One hour after the administration of the test sample, an inflammatory agent (0.1 ml of a physiological saline solution containing 1% of carrageenin) was subcutaneously injected to each rat at the sole. Then, the sole volume was measured with the lapse of time using a plethysmometer, and swelling percent was calculated from the following formula. Swelling percent (%) = [(Ps - Po)/Po] x 100 where Po = sole volume before injection of carrageenin Ps = sole volume at a certain time after the injection of carrageenin For comparison, Piroxicam alone was orally administered in an amount of 1 mg/kg, in the same manner as above, and the change of swelling percent with time was examined.
structure (smiles),measurement,setting,value
"CN1C(C(=O)Nc2ccccn2)=C(O)c2ccccc2S1(=O)=O [Piroxicam alone, Piroxicam]",Swelling percent,0.5 hour after carrageenin injection,26.79%
same,Swelling percent,1 hour after carrageenin injection,39.51%
same,Swelling percent,1.5 hours after carrageenin injection,46.71%
same,Swelling percent,2 hours after carrageenin injection,45.72%
same,Swelling percent,3 hours after carrageenin injection,43.77%
same,Swelling percent,4 hours after carrageenin injection,44.33%
same,anti-inflammatory action,"result in words, from Table 1",significant anti-inflammatory action
